Measurements: US20200383327A1, “METHOD OF IMPROVING PLANT PERFORMANCE” (The State of Israel, Ministry of Agriculture & Rural …, priority 2018, published 2020)
Entries after “also recorded” stand apart in the source; their conditions may differ.

How the values were obtained:
Assay type in all cases: in vivo
Botrytis = assay: Resistance of petunia plants to Botrytis, increasing Phe concentrations
Experimental: The effect of treating petunia plants with increased concentrations of Phe was assessed: plants were either sprayed or drenched with increasing concentration of Phe three days prior to infection with Botrytis and on the day of infection. The infected area was followed for 7-10 days after infection.

Botrytis cinerea = assay: Tomato gray mold severity on leaves of tomato plants
Experimental: Plants of tomato (Solanum esculentum) and cucumber (Cucumis sativus) were grown from seeds in a nursery and transplanted into 1-liter pots at 40 to 50 days after seeding in an unheated greenhouse. Plants were fertilized proportionally with drippers 2-3 times per day with 5:3:8 NPK fertilizer (irrigation water was planned to have total N, P and K concentrations of 120, 30 and 150 mg/L, respectively; EC 2.2 dS/m), allowing for 25-50% drainage. Plants were maintained at 20 to 30° C. with natural light, and relative humidity of 50-90% in a pest- and disease-free greenhouse during the growth period and then transferred to an area where diseases were allowed to develop following pathogen infection on intact leaves as described below.
Treatments in experiments were replicated 5-10 times. Replicates of each treatment were arranged randomly. Disease severity data in percentages were arcsin-transformed before further analysis. Disease severity data were analyzed using ANOVA and Fisher's protected LSD test. Standard errors (SE) of the means were calculated and disease levels were statistically separated (P≤0.05) following a one-way analysis of variance. A control experiment presents the severity of the disease with application of only water without the Phe.
Gray mold inducing pathogen Botrytis cinerea [Pers.:Fr. [Teleomorph: Botryotinia fuckeliana (de Bary) Whetzel] (isolate BcI16; [Swartzberg D. et al., Eur. J. Plant Pathol., 2008, 120:289-297])] was cultured on potato dextrose agar (PDA, Difco, Detroit, Mich.) in 90 mm diam. petri dishes containing 15 ml PDA each and incubated at 20° C. The inoculum was maintained on PDA and transferred every two weeks. Gray mold conidia were harvested from 10 to 14-day-old cultures by agitating 1 cm^2 of agar bearing mycelium and conidia in a glass tube with tap water. The suspension was then filtered through cheesecloth. The concentration of conidia was determined using a hemocytometer and a light microscope, and adjusted to 5×10^5 conidia/ml. Since B. cinerea conidia need carbon and phosphate for germination and penetration, 0.1% glucose was added to the final conidial suspension together with 0.1% KH2PO4. […] Plant attached tomato leaves were examined. Whole plants were kept in a humidity chamber at 20±1° C., 97±3% RH, and 1,020 lux light intensity. Plants were infected by spraying the whole plant with 2 ml of a 5×10^5 conidia/ml suspension or were infected after wounding with a needle and dropping 10 μL drops of conidia suspension prepared as mentioned above. Disease severity was evaluated on each plant using a pictorial key; 0=no infection (all leaves are symptomless) and 100=all leaves are fully covered by gray mold symptoms.

[1] = Number of flowers and stigmas of Petunia plants
Experimental: FIGS. 22A-22C are vertical bar graphs showing the effect of Phe solution on the number of flowers per plant. Petunia plants were treated once a week for 5 weeks with Phe solution (2 mM, 6 mM, 15 mM, 35 mM, or none, i.e., control). Numbers of flowers were counted and documented over a period of 7 weeks for Petunia ‘easy-rider’ strain (FIG. 22A) and Petunia ‘white dreams’ strain (FIG. 22B).

[2] = Strawberry fruit decay after pre-harvest treatment; details: 1-4 mM solution 3 weeks pre-harvest, FIG. 18
Experimental: FIG. 18 is a graph showing the effect of Phe solution on fruit pre-harvest decay. […] Decay was monitored and documented over a period of 12 days.
Strawberry plants were treated with 1-4 mM solution 3 weeks pre-harvest.

Penicillium digitatum = assay: Postharvest decay of 'Michal' clementine fruit sprayed with conidia; details: 4 mM phenylalanine, FIG. 6
Experimental: FIGS. 6A-6C are graphs and a photograph showing induced resistance of harvested clementine fruit to fungal pathogens. FIG. 6A is a vertical bar showing the % of decayed Clementine fruit (in a box) of the cultivar ‘Michal’ which were dipped for 30 seconds in 4 mM phenylalanine. After the fruits were dried, they were sprayed with conidia suspension of Penicillium digitatum (early infection), or alternatively the fruit was sprayed with conidia suspension two days after being dipped in phenylalanine (late infection). FIG. 6B is representative pictures of inoculated fruits of control and treatment with 4 mM phenylalanine, 5 days post inoculation. FIG. 6C is diagrams of taste evaluation of control fruit (upper panel) and phenylalanine treated fruit (lower panel) which include off-flavors (index 1-5), acidity (index 1-5), sweetness (index 1-5), and general taste (index 1-5).

Structure (SMILES): N[C@@H](Cc1ccccc1)C(=O)O [Phe, Phenylalanine]
- Protection against Botrytis (Botrytis; 6 mM Phe, sprayed or drenched, petunia, 7-10 days after infection): might not be effective enough
- Plant health and pathogen status (Botrytis; 15 and 35 mM Phe, drenched, petunia): healthy, pathogen free
- Resistance to Botrytis (Botrytis; 35 and 50 mM Phe, sprayed, petunia, FIG. 7): much higher resistance to Botrytis
- Phe concentration at which resistance to Botrytis was apparent (Botrytis; drenching Phe, FIGS. 8A-8B): ≥ 6 mM
- Phe concentration at which resistance to Botrytis was apparent (Botrytis; sprayed Phe, FIGS. 7A-7B): ≥ 6 mM
- Disease control effect on severity of tomato gray mold (Botrytis cinerea; 4 mM vs 2 mM Phe, drench to the root zone, FIG. 14): significantly better disease control effect than 2 mM
- Disease control effect on severity of tomato gray mold (Botrytis cinerea; 4 mM vs 2 mM Phe, sprayed or drenched, wound infection, 1-4 mM series, FIG. 16): significantly better disease control effect than 2 mM
- Disease control effect on severity of tomato gray mold (Botrytis cinerea; 4 mM vs 2 mM Phe, sprayed or drenched, wound infection, 2-4 mM series, FIG. 17): significantly better disease control effect than 2 mM
- Disease control effect on severity of tomato gray mold (Botrytis cinerea; 4 and 8 mM vs 2 mM Phe, sprayed, FIG. 15): significantly better disease control effect than 2 mM
- Number of flowers ([1]; Phe solution once a week for 5 weeks vs control, FIGS. 22A-22B): more flowers
- Number of stigmas ([1]; Phe solution vs control, FIG. 22C): more flowers and stigmas; also recorded: more stigmas compared to control
- Amount of rotten fruits (decay incidence) [2]: substantially reduced amount of rotten fruits
- Decay severity in comparison to the untreated control fruits (Penicillium digitatum): reduced the decay severity
